Measurements from EP0353754A2, “Radioactively marked benzodiazepin derivates” (F. HOFFMANN-LA ROCHE AG, priority 1988, dated 1990).

Test: Organ distribution of injected radioactivity in rats after I.V. injection
Assay type: in vivo, Ratten (weiblich, Wistar, spf)
Conditions: Ratte
Procedure: Es werden je 3 Ratten (weiblich, Wistar, spf) zu sieben verschiedenen Zeitpunkten (2′, 10′, 20′, 40′, 1h, 6h, 15h) gemessen. Das Gewicht der Tiere lag zwischen 113 und 144 g. Die Fütterung erfolgte ad libitum. Die I.V. injizierten Dosen variierten von 184 bis 355 µCi in jeweils 0,2 ml.

Structure (SMILES): CCOC(=O)c1ncn2c1CN(C)C(=O)c1c([123I])cccc1-2 [Aethyl-7-¹²³Jod-5,6-dihydro-5-methyl-6-oxo-4H-imidazo[1,5-a][1,4]benzodiazepin-3-carboxylat]
- Prozent der injizierten Aktivität in den entsprechend Organen (Blase, 2′): 0,03 Prozent der injizierten Aktivität
- Prozent der injizierten Aktivität in den entsprechend Organen (Blase, 10′): 0,06 Prozent der injizierten Aktivität
- Prozent der injizierten Aktivität in den entsprechend Organen (Blase, 20′): 0,03 Prozent der injizierten Aktivität
- Prozent der injizierten Aktivität in den entsprechend Organen (Blase, 40′): 0,01 Prozent der injizierten Aktivität
- Prozent der injizierten Aktivität in den entsprechend Organen (Blase, 60′): 0,03 Prozent der injizierten Aktivität
- Prozent der injizierten Aktivität in den entsprechend Organen (Blase, 6h): 0,09 Prozent der injizierten Aktivität
- Prozent der injizierten Aktivität in den entsprechend Organen (Blase, 15h): 0,0022 Prozent der injizierten Aktivität
- Prozent der injizierten Aktivität in den entsprechend Organen (Darm, 2′): 9,28 Prozent der injizierten Aktivität
- Prozent der injizierten Aktivität in den entsprechend Organen (Darm, 10′): 12,70 Prozent der injizierten Aktivität
- Prozent der injizierten Aktivität in den entsprechend Organen (Darm, 20′): 22,53 Prozent der injizierten Aktivität
- Prozent der injizierten Aktivität in den entsprechend Organen (Darm, 40′): 25,54 Prozent der injizierten Aktivität
- Prozent der injizierten Aktivität in den entsprechend Organen (Darm, 60′): 28,48 Prozent der injizierten Aktivität
- Prozent der injizierten Aktivität in den entsprechend Organen (Darm, 6h): 19,50 Prozent der injizierten Aktivität
- Prozent der injizierten Aktivität in den entsprechend Organen (Darm, 15h): 1,012 Prozent der injizierten Aktivität
- Prozent der injizierten Aktivität in den entsprechend Organen (Femur, 2′): 0,39 Prozent der injizierten Aktivität
- Prozent der injizierten Aktivität in den entsprechend Organen (Femur, 10′): 0,25 Prozent der injizierten Aktivität
- Prozent der injizierten Aktivität in den entsprechend Organen (Femur, 20′): 0,14 Prozent der injizierten Aktivität
- Prozent der injizierten Aktivität in den entsprechend Organen (Femur, 40′): 0,06 Prozent der injizierten Aktivität
- Prozent der injizierten Aktivität in den entsprechend Organen (Femur, 60′): 0,04 Prozent der injizierten Aktivität
- Prozent der injizierten Aktivität in den entsprechend Organen (Femur, 6h): 0,01 Prozent der injizierten Aktivität
- Prozent der injizierten Aktivität in den entsprechend Organen (Femur, 15h): 0,004 Prozent der injizierten Aktivität
- Prozent der injizierten Aktivität in den entsprechend Organen (Herz, 2′): 0,58 Prozent der injizierten Aktivität
- Prozent der injizierten Aktivität in den entsprechend Organen (Herz, 10′): 0,37 Prozent der injizierten Aktivität
- Prozent der injizierten Aktivität in den entsprechend Organen (Herz, 20′): 0,17 Prozent der injizierten Aktivität
- Prozent der injizierten Aktivität in den entsprechend Organen (Herz, 40′): 0,06 Prozent der injizierten Aktivität
- Prozent der injizierten Aktivität in den entsprechend Organen (Herz, 60′): 0,03 Prozent der injizierten Aktivität
- Prozent der injizierten Aktivität in den entsprechend Organen (Herz, 6h): 0,009 Prozent der injizierten Aktivität
- Prozent der injizierten Aktivität in den entsprechend Organen (Herz, 15h): 0,0035 Prozent der injizierten Aktivität
- Prozent der injizierten Aktivität in den entsprechend Organen (Hirn, 2′): 3,11 Prozent der injizierten Aktivität
- Prozent der injizierten Aktivität in den entsprechend Organen (Hirn, 10′): 5,38 Prozent der injizierten Aktivität
- Prozent der injizierten Aktivität in den entsprechend Organen (Hirn, 20′): 4,20 Prozent der injizierten Aktivität
- Prozent der injizierten Aktivität in den entsprechend Organen (Hirn, 40′): 4,02 Prozent der injizierten Aktivität
- Prozent der injizierten Aktivität in den entsprechend Organen (Hirn, 60′): 2,42 Prozent der injizierten Aktivität
- Prozent der injizierten Aktivität in den entsprechend Organen (Hirn, 6h): 0,08 Prozent der injizierten Aktivität
- Prozent der injizierten Aktivität in den entsprechend Organen (Hirn, 15h): 0,0015 Prozent der injizierten Aktivität
- Prozent der injizierten Aktivität in den entsprechend Organen (Kot + Urin, 2′): 0,05 Prozent der injizierten Aktivität
- Prozent der injizierten Aktivität in den entsprechend Organen (Kot + Urin, 10′): 6,17 Prozent der injizierten Aktivität
- Prozent der injizierten Aktivität in den entsprechend Organen (Kot + Urin, 20′): 19,39 Prozent der injizierten Aktivität
- Prozent der injizierten Aktivität in den entsprechend Organen (Kot + Urin, 40′): 48,72 Prozent der injizierten Aktivität
- Prozent der injizierten Aktivität in den entsprechend Organen (Kot + Urin, 60′): 51,71 Prozent der injizierten Aktivität
- Prozent der injizierten Aktivität in den entsprechend Organen (Kot + Urin, 6h): 48,81 Prozent der injizierten Aktivität
- Prozent der injizierten Aktivität in den entsprechend Organen (Kot + Urin, 15h): 42,69 Prozent der injizierten Aktivität
- Prozent der injizierten Aktivität in den entsprechend Organen (Leber, 2′): 16,90 Prozent der injizierten Aktivität
- Prozent der injizierten Aktivität in den entsprechend Organen (Leber, 10′): 34,37 Prozent der injizierten Aktivität
- Prozent der injizierten Aktivität in den entsprechend Organen (Leber, 20′): 17,61 Prozent der injizierten Aktivität
- Prozent der injizierten Aktivität in den entsprechend Organen (Leber, 40′): 3,90 Prozent der injizierten Aktivität
- Prozent der injizierten Aktivität in den entsprechend Organen (Leber, 60′): 1,29 Prozent der injizierten Aktivität
- Prozent der injizierten Aktivität in den entsprechend Organen (Leber, 6h): 0,15 Prozent der injizierten Aktivität
- Prozent der injizierten Aktivität in den entsprechend Organen (Leber, 15h): 0,107 Prozent der injizierten Aktivität
- Prozent der injizierten Aktivität in den entsprechend Organen (Lunge, 2′): 1,04 Prozent der injizierten Aktivität
- Prozent der injizierten Aktivität in den entsprechend Organen (Lunge, 10′): 0,81 Prozent der injizierten Aktivität
- Prozent der injizierten Aktivität in den entsprechend Organen (Magen, 2′): 0,81 Prozent der injizierten Aktivität
- Prozent der injizierten Aktivität in den entsprechend Organen (Magen, 10′): 1,20 Prozent der injizierten Aktivität
- Prozent der injizierten Aktivität in den entsprechend Organen (Magen, 20′): 1,28 Prozent der injizierten Aktivität
- Prozent der injizierten Aktivität in den entsprechend Organen (Magen, 40′): 1,37 Prozent der injizierten Aktivität
- Prozent der injizierten Aktivität in den entsprechend Organen (Magen, 60′): 1,96 Prozent der injizierten Aktivität
- Prozent der injizierten Aktivität in den entsprechend Organen (Magen, 6h): 1,35 Prozent der injizierten Aktivität
- Prozent der injizierten Aktivität in den entsprechend Organen (Magen, 15h): 0,346 Prozent der injizierten Aktivität
- Prozent der injizierten Aktivität in den entsprechend Organen (Milz, 2′): 0,26 Prozent der injizierten Aktivität
- Prozent der injizierten Aktivität in den entsprechend Organen (Milz, 10′): 0,21 Prozent der injizierten Aktivität
- Prozent der injizierten Aktivität in den entsprechend Organen (Milz, 20′): 0,11 Prozent der injizierten Aktivität
- Prozent der injizierten Aktivität in den entsprechend Organen (Milz, 40′): 0,06 Prozent der injizierten Aktivität
- Prozent der injizierten Aktivität in den entsprechend Organen (Milz, 60′): 0,03 Prozent der injizierten Aktivität
- Prozent der injizierten Aktivität in den entsprechend Organen (Milz, 6h): 0,008 Prozent der injizierten Aktivität
- Prozent der injizierten Aktivität in den entsprechend Organen (Milz, 15h): 0,0035 Prozent der injizierten Aktivität
- Prozent der injizierten Aktivität in den entsprechend Organen (Nieren, 2′): 3,15 Prozent der injizierten Aktivität
- Prozent der injizierten Aktivität in den entsprechend Organen (Nieren, 10′): 7,48 Prozent der injizierten Aktivität
- Prozent der injizierten Aktivität in den entsprechend Organen (Nieren, 20′): 6,25 Prozent der injizierten Aktivität
- Prozent der injizierten Aktivität in den entsprechend Organen (Nieren, 40′): 1,53 Prozent der injizierten Aktivität
- Prozent der injizierten Aktivität in den entsprechend Organen (Nieren, 60′): 0,79 Prozent der injizierten Aktivität
- Prozent der injizierten Aktivität in den entsprechend Organen (Nieren, 6h): 0,04 Prozent der injizierten Aktivität
- Prozent der injizierten Aktivität in den entsprechend Organen (Nieren, 15h): 0,009 Prozent der injizierten Aktivität
- Prozent der injizierten Aktivität in den entsprechend Organen (Ovar, 2′): 0,09 Prozent der injizierten Aktivität
- Prozent der injizierten Aktivität in den entsprechend Organen (Ovar, 10′): 0,06 Prozent der injizierten Aktivität
- Prozent der injizierten Aktivität in den entsprechend Organen (Ovar, 20′): 0,05 Prozent der injizierten Aktivität
- Prozent der injizierten Aktivität in den entsprechend Organen (Ovar, 40′): 0,02 Prozent der injizierten Aktivität
- Prozent der injizierten Aktivität in den entsprechend Organen (Ovar, 60′): 0,02 Prozent der injizierten Aktivität
- Prozent der injizierten Aktivität in den entsprechend Organen (Ovar, 6h): 0,003 Prozent der injizierten Aktivität
- Prozent der injizierten Aktivität in den entsprechend Organen (Ovar, 15h): 0,0008 Prozent der injizierten Aktivität
- Prozent der injizierten Aktivität in den entsprechend Organen (Restkörper, 2′): 63,94 Prozent der injizierten Aktivität
- Prozent der injizierten Aktivität in den entsprechend Organen (Restkörper, 10′): 29,92 Prozent der injizierten Aktivität
- Prozent der injizierten Aktivität in den entsprechend Organen (Restkörper, 20′): 25,92 Prozent der injizierten Aktivität
- Prozent der injizierten Aktivität in den entsprechend Organen (Restkörper, 40′): 11,04 Prozent der injizierten Aktivität
- Prozent der injizierten Aktivität in den entsprechend Organen (Restkörper, 60′): 7,09 Prozent der injizierten Aktivität
- Prozent der injizierten Aktivität in den entsprechend Organen (Restkörper, 6h): 2,88 Prozent der injizierten Aktivität
- Prozent der injizierten Aktivität in den entsprechend Organen (Restkörper, 15h): 1,30 Prozent der injizierten Aktivität
- Prozent der injizierten Aktivität in den entsprechend Organen (Schilddrüse, 2′): 0,18 Prozent der injizierten Aktivität
- Prozent der injizierten Aktivität in den entsprechend Organen (Schilddrüse, 10′): 0,15 Prozent der injizierten Aktivität
- Prozent der injizierten Aktivität in den entsprechend Organen (Schilddrüse, 20′): 0,18 Prozent der injizierten Aktivität
- Prozent der injizierten Aktivität in den entsprechend Organen (Schilddrüse, 40′): 0,03 Prozent der injizierten Aktivität
- Prozent der injizierten Aktivität in den entsprechend Organen (Schilddrüse, 60′): 0,02 Prozent der injizierten Aktivität
- Prozent der injizierten Aktivität in den entsprechend Organen (Schilddrüse, 6h): 0,008 Prozent der injizierten Aktivität
- Prozent der injizierten Aktivität in den entsprechend Organen (Schilddrüse, 15h): 0,0015 Prozent der injizierten Aktivität
- Prozent der injizierten Aktivität in den entsprechend Organen (Totalkörper, 2′): 99,75 Prozent der injizierten Aktivität
- Prozent der injizierten Aktivität in den entsprechend Organen (Totalkörper, 10′): 92,96 Prozent der injizierten Aktivität
- Prozent der injizierten Aktivität in den entsprechend Organen (Totalkörper, 20′): 78,87 Prozent der injizierten Aktivität
- Prozent der injizierten Aktivität in den entsprechend Organen (Totalkörper, 40′): 47,80 Prozent der injizierten Aktivität
- Prozent der injizierten Aktivität in den entsprechend Organen (Totalkörper, 60′): 43,17 Prozent der injizierten Aktivität
- Prozent der injizierten Aktivität in den entsprechend Organen (Totalkörper, 6h): 24,16 Prozent der injizierten Aktivität
